Results on 27 molecules are retold here after ChEMBL document CHEMBL3351327, “Synthesis of some novel hydrazone and 2-pyrazoline derivatives: monoamine oxidase inhibitory activities and docking studies” (Bioorg Med Chem Lett, 2014).

The target of assay [1] is T1, Amine oxidase [flavin-containing] A (Homo sapiens, UniProt P21397).
T1 sequence (P21397 whole entry): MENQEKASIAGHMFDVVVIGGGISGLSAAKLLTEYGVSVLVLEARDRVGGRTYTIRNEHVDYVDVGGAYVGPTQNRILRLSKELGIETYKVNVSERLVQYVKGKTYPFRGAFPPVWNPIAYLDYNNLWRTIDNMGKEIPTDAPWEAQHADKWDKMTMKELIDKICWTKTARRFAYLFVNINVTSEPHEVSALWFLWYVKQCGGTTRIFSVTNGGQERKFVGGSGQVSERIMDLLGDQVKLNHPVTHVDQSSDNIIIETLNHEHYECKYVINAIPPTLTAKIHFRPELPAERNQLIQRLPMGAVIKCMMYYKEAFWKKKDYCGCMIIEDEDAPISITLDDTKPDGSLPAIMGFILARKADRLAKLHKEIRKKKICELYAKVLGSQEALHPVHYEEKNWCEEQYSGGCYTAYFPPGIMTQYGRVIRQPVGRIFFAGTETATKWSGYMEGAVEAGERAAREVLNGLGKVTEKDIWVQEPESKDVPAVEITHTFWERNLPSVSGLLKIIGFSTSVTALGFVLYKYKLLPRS
In words: biochemical. It counts as cell-based.
Description: Inhibition of human MAOA expressed in baculovirus-infected BTI insect cells assessed as H2O2 production by resorufin dye based fluorimetric method

The target in assay [2] is T2, Amine oxidase [flavin-containing] B (Homo sapiens, UniProt P27338).
T2 sequence (P27338 whole entry): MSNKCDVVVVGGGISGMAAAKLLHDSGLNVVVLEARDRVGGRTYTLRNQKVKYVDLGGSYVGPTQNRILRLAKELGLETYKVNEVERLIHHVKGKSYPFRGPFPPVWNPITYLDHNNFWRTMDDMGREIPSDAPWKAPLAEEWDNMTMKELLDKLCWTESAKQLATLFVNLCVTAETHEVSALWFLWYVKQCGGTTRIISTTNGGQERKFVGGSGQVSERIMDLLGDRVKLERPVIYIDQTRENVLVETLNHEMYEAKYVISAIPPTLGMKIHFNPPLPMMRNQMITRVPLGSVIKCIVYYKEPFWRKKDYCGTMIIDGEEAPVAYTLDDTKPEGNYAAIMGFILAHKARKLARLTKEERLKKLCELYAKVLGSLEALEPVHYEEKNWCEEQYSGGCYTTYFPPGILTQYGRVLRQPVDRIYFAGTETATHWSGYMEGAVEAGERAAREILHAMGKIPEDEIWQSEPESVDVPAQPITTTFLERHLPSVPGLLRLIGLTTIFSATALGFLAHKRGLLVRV
In words: biochemical. Format: cell-based.
Description: Inhibition of human MAOB expressed in baculovirus-infected BTI insect cells assessed as H2O2 production by resorufin dye based fluorimetric method

`Cc1ccc([C@H]2CC(c3cc(Br)ccc3O)=NN2C(=O)c2ccco2)cc1`: the Ki in assay [1] turned out to be 0.45 µM; in assay [2], 14 µM.

With `COc1ccc(/C=C/C(=O)c2ccc(Br)cc2)cc1`, the Ki in assay [1] worked out at 0.1 µM; in assay [2], 5.55 µM.

Regarding `Cc1ccc([C@H]2CC(c3cc(Br)ccc3O)=NN2C(=O)c2ccccc2)cc1`, in assay [1], the Ki is 0.04 µM. In other words, the double-digit nanomolar range.

In the case of `COc1ccc(C(=O)N2N=C(c3cc(Cl)ccc3O)C[C@@H]2c2ccc(C)cc2)cc1`, the Ki in assay [1] turned out to be 4.67 µM.

For the molecule `Cc1ccc([C@H]2CC(c3cc(Cl)ccc3O)=NN2C(=O)c2ccncc2)cc1`, the results for the Ki in assay [1] and in assay [2] were 0.6 µM and 5.23 µM, respectively.

Turning to `COc1ccc(C(=O)/C=C/c2ccc(C)cc2)cc1`, the results for the Ki in assay [1] and in assay [2] were 0.56 µM and 14.9 µM, respectively.

As for `Cc1ccc(/C=C/C(=N/NC(=O)c2snnc2C)c2ccc(Cl)cc2)cc1`, the inhibition constant Ki came to 0.012 µM in assay [1] and 0.76 µM in assay [2].

Take `COc1ccc(/C=C/C(=N\NC(=O)c2ccc(OC)cc2)c2ccc(Br)cc2)cc1`: the Ki in assay [1] is 0.045 µM; in assay [2], 0.98 µM.

Consider `COc1ccc(/C=C/C(=N\NC(=O)c2ccc(OC)cc2)c2ccc(Cl)cc2)cc1`, for which the Ki in assay [1] is 0.034 µM.

Regarding `Cc1ccc([C@H]2CC(c3cc(Br)ccc3O)=NN2C(=O)c2cccs2)cc1`, the figures for the Ki in assay [1] and in assay [2] were 0.13 µM and 1640 µM, respectively.

Regarding `Cc1ccc([C@H]2CC(c3cc(Cl)ccc3O)=NN2C(=O)c2ccccc2)cc1`, the Ki turned out to be 0.012 µM in assay [1] and 0.75 µM in assay [2].

For the molecule `Cc1ccc(/C=C/C(=O)c2cc(Br)ccc2O)cc1`, the Ki in assay [1] was 0.13 µM; in assay [2] it was 4.22 µM.

In the case of `COc1ccc(/C=C/C(=N/NC(=O)c2snnc2C)c2ccc(Cl)cc2)cc1`, the Ki was 0.012 µM in assay [1] and 1.05 µM in assay [2].

Turning to `COc1ccc(C(/C=C/c2ccc(C)cc2)=N\NC(=O)c2snnc2C)cc1`, the Ki in assay [1] amounted to 0.041 µM; in assay [2], 0.9 µM.

As to `Cc1ccc(/C=C/C(=N/NC(=O)c2snnc2C)c2ccc(O)cc2)cc1`, the Ki in assay [1] came out at 0.01 µM; in assay [2] it was 1.48 µM.

As for `Cc1ccc(/C=C/C(=N\NC(=O)c2cccs2)c2ccc(Cl)cc2)cc1`, the inhibition constant Ki in assay [1] turned out to be 0.034 µM; in assay [2] it was 0.52 µM.

As for `Cc1cccc(/C=C/C(=O)c2ccc(Cl)cc2)c1`, the results for the Ki in assay [1] and in assay [2] were 0.16 µM and 7 µM, respectively.

On to `Cc1ccc(/C=C/C(=O)c2ccc(Cl)cc2)cc1`, for which the Ki worked out at 0.24 µM in assay [1] and 7.7 µM in assay [2].

With `Cc1cccc(/C=C/C(=N/NC(=O)c2snnc2C)c2ccc(Cl)cc2)c1`, the Ki in assay [1] was determined as 0.01 µM; in assay [2] it was 0.99 µM.

For the molecule `Cc1ccc(/C=C/C(=O)c2ccc(O)cc2)cc1`, in assay [1], the Ki worked out at 0.6 µM.

Regarding `Cc1ccc([C@H]2CC(c3cc(Cl)ccc3O)=NN2C(=O)c2snnc2C)cc1`, the inhibition constant Ki stood at 0.24 µM in assay [1] and 72 µM in assay [2].

On to `Cc1ccc([C@H]2CC(c3cc(Cl)ccc3O)=NN2C(=O)c2ccco2)cc1`, for which the Ki was found to be 0.11 µM in assay [1] and 0.99 µM in assay [2].

On to `COc1ccc(/C=C/C(=N\NC(=O)c2ccco2)c2ccc(Br)cc2)cc1`, for which the Ki in assay [1] was 0.091 µM; in assay [2], 0.7 µM.

As to `COc1ccc(C(=O)N2N=C(c3cc(Br)ccc3O)C[C@@H]2c2ccc(C)cc2)cc1`, the Ki in assay [1] worked out at 79.2 µM.

On to `COc1ccc(/C=C/C(=O)c2ccc(Cl)cc2)cc1`, for which the inhibition constant (Ki) amounted to 0.24 µM in assay [1] and 13.9 µM in assay [2].

`Cc1ccc([C@H]2CC(c3cc(Br)ccc3O)=NN2C(=O)c2ccncc2)cc1`: the Ki in assay [1] turned out to be 0.18 µM; in assay [2] it was 2 µM.

For the molecule `Cc1ccc(/C=C/C(=O)c2cc(Cl)ccc2O)cc1`, the Ki in assay [1] was found to be 0.14 µM; in assay [2] it was 7.22 µM.

As usually defined, the Ki is the dissociation constant of the complex between target and ligand, obtained from inhibition or displacement. Low values mean higher affinity, high ones lower affinity.
